Test results as given in US20130244999A1, “Substituted Heterocyclic Compounds” (Incyte Corporation, priority 2008, published 2013).

Each compound was assayed against T1, histamine H4 receptor (Homo sapiens, UniProt Q9H3N8) (assay: Inhibition of histamine H4 receptor (Table A1; H4 membrane binding assay)). Conditions: not given.
T1 construct: expressed in transfected cells; host or cells: HEK293SFM cells (membrane preparation)
T1 sequence (Q9H3N8 whole entry): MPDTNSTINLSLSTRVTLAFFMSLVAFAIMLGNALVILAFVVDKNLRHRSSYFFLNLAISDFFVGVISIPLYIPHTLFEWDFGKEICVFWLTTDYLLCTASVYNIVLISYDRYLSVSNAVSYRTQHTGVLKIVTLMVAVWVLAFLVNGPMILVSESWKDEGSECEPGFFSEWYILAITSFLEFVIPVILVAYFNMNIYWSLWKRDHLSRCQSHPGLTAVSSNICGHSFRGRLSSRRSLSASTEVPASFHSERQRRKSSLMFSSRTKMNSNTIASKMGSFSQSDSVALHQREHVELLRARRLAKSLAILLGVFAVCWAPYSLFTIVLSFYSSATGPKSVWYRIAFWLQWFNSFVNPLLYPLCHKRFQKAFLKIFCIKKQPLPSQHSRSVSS
Experimental: Recombinant HEK293SFM cells expressing human H1, H2, H3, H4 or mouse H4 were harvested (Packard Filtermate Harvester) in ice-cold Tris-HCl, (50 mM, pH 7.5, Sigma) with protease inhibitors (Roche) and homogenized with a Polytron homogenizer. The homogenate was centrifuged for 5 minutes at 1000 g to remove nuclei and unbroken cells. The supernatant was centrifuged at 50000 g for 30 minutes, and the resulting pellet was re-suspended in ice-cold Tris-HCl (50 mM, pH 7.5). […] Nonspecific binding was determined by inclusion of 1000× unlabeled ligands. The bound radioactivity was separated by filtration through polyethyleneimine-treated GF/B filters (Perkin Elmer). The filters were washed eight times with ice-cold Tris-HCl (50 mM, pH 7.5), and radioactivity retained on the filters was measured by liquid scintillation counting. The binding data were evaluated with Prism. […]
With `CC1Cc2ccc(-c3cccc(C(=O)N(C)C)n3)cc2CN1c1cc(N2CCN(C)CC2)nc(N)n1` (single isomer, unassigned) [Example 76, 6-{2-[2-Amino-6-(4-methylpiperazin-1-yl)pyrimidin-4-yl]-3-methyl-1,2,3,4-tetrahydroisoquinolin-7-yl}-N,N-dimethylpyridine-2-carboxamide] the inhibition at 1 µM was 66%.

Same assay, conditions: histamine H4 receptor; "> a" = exceeds experiment limit
`CNC(=O)c1ccc(-c2ccc3c(c2)CN(c2cc(N4CCN(C)CC4)nc(N)n2)C(C)C3)cc1C` (centres unmarked) [Example 130, 4-{2-[2-Amino-6-(4-methylpiperazin-1-yl)pyrimidin-4-yl]-3-methyl-1,2,3,4-tetrahydroisoquinolin-7-yl}-N,2-dimethylbenzamide] was tested, and the IC50 was 69 nM. For `CC1Cc2ccc(-c3ccnc(C(=O)N[C@H](C)CO)c3)cc2CN1c1cc(N2CCN(C)CC2)nc(N)n1` (single isomer, unassigned) [Example 69], the IC50 was 66 nM. `CN1CCN(c2cc(N3CCc4ccc(-c5cnn(C)c5)cc4C3)nc(N)n2)CC1` [Example 4, 4-(4-Methylpiperazin-1-yl)-6-[7-(1-methyl-1H-pyrazol-4-yl)-3,4-dihydroisoquinolin-2(1H)-yl]pyrimidin-2-amine] gave an IC50 of 80 nM. In the case of `CC1Cc2ccc(-c3ccc(C(=O)N[C@H](C)CO)nc3)cc2CN1c1cc(N2CCN(C)CC2)nc(N)n1` (single isomer, unassigned) [Example 51A], the IC50 is reported as 75 nM. For `CC1Cc2ccc(-c3cnn(CCF)c3)cc2CN1c1cc(N2CCN(C)CC2)nc(N)n1` (single isomer, unassigned) [Example 100, 4-[7-[1-(2-fluoroethyl)-1H-pyrazol-4-yl]-3-methyl-3,4-dihydroisoquinolin-2(1H)-yl]-6-(4-methylpiperazin-1-yl)pyrimidin-2-amine], the IC50 was 20 nM. `CC1Cc2ccc(-c3cc(C(=O)N4CCC4)n(C)c3)cc2CN1c1cc(N2CCN(C)CC2)nc(N)n1` (single isomer, unassigned) [Example 92B, 4-[7-[5-(azetidin-1-ylcarbonyl)-1-methyl-1H-pyrrol-3-yl]-3-methyl-3,4-dihydroisoquinolin-2(1H)-yl]-6-(4-methylpiperazin-1-yl)pyrimidin-2-amine] was tested, and the IC50 was 127 nM. `CN1CCN(c2cc(N3CCc4ccc(C(=O)N(C)Cc5cccc(F)c5)cc4C3)nc(N)n2)CC1` [Example 25, 2-[2-Amino-6-(4-methylpiperazin-1-yl)pyrimidin-4-yl]-N-(3-fluorobenzyl)-N-methyl-1,2,3,4-tetrahydroisoquinoline-7-carboxamide] showed an IC50 of 260 nM. Work on `CCOc1nc(-c2ccc3c(c2)CN(c2cc(N4CCN(C)CC4)nc(N)n2)C(C)C3)cs1` (centres unmarked) [Example 117, 4-[7-(2-Ethoxy-1,3-thiazol-4-yl)-3-methyl-3,4-dihydroisoquinolin-2(1H)-yl]-6-(4-methylpiperazin-1-yl)pyrimidin-2-amine] yielded an IC50 of 43 nM. `CC1Cc2ccc(-c3ccnc(C(=O)N4CCCC4)c3)cc2CN1c1cc(N2CCN(C)CC2)nc(N)n1` (single isomer, unassigned) [Example 64A, 4-(4-methylpiperazin-1-yl)-6-[3-methyl-7-[2-(pyrrolidin-1-ylcarbonyl)pyridin-4-yl]-3,4-dihydroisoquinolin-2(1H)-yl]pyrimidin-2-amine] gave an IC50 of 116 nM. Compound `CC1Cc2ccc(-c3cc(C(=O)N4CCC4)n(C)c3)cc2CN1c1cc(N2CCN(C)CC2)nc(N)n1` (single isomer, unassigned) [Example 92A, 4-[7-[5-(azetidin-1-ylcarbonyl)-1-methyl-1H-pyrrol-3-yl]-3-methyl-3,4-dihydroisoquinolin-2(1H)-yl]-6-(4-methylpiperazin-1-yl)pyrimidin-2-amine] has an IC50 of 25 nM. `CN1CCN(c2cc(N3CCc4ccc(-c5ccc(C(=O)N[C@H]6CC[C@H](O)CC6)nc5)cc4C3)nc(N)n2)CC1` [Example 20, 5-{2-[2-Amino-6-(4-methylpiperazin-1-yl)pyrimidin-4-yl]-1,2,3,4-tetrahydroisoquinolin-7-yl}-N-(trans-4-hydroxycyclohexyl)pyridine-2-carboxamide] gave an IC50 of 113 nM. Compound `CNC(=O)c1ncc(-c2ccc3c(c2)CN(c2cc(N4CCN(C)CC4)nc(N)n2)CC3)cc1C` [Example 45, 5-{2-[2-Amino-6-(4-methylpiperazin-1-yl)pyrimidin-4-yl]-1,2,3,4-tetrahydroisoquinolin-7-yl}-N,3-dimethylpyridine-2-carboxamide] has an IC50 of 106 nM. Work on `CC1Cc2ccc(-c3cnn(CCN4CCOCC4)c3)cc2CN1c1cc(N2CCN(C)CC2)nc(N)n1` (single isomer, unassigned) [Example 104, 4-[3-Methyl-7-[1-(2-morpholin-4-ylethyl)-1H-pyrazol-4-yl]-3,4-dihydroisoquinolin-2(1H)-yl]-6-(4-methylpiperazin-1-yl)pyrimidin-2-amine] yielded an IC50 of 45 nM. With `CCS(=O)(=O)N1CCC(c2ccc3c(c2)CN(c2cc(N4CCN(C)CC4)nc(N)n2)C(C)C3)CC1` (centres unmarked) [Example 152, 4-[7-[1-(Ethylsulfonyl)piperidin-4-yl]-3-methyl-3,4-dihydroisoquinolin-2(1H)-yl]-6-(4-methylpiperazin-1-yl)pyrimidin-2-amine] the IC50 was 17.6 nM. `CN1CCN(c2cc(N3CCc4ccc(Br)cc4C3)nc(N)n2)CC1` [Example 1, 4-(7-Bromo-3,4-dihydroisoquinolin-2(1H)-yl)-6-(4-methylpiperazin-1-yl)pyrimidin-2-amine] gave an IC50 of 39 nM. Work on `CC1Cc2ccc(-c3ccnc(C(=O)N4CC(O)C4)c3)cc2CN1c1cc(N2CCN(C)CC2)nc(N)n1` (centres unmarked) [Example 153, 1-[(4-{2-[2-Amino-6-(4-methylpiperazin-1-yl)pyrimidin-4-yl]-3-methyl-1,2,3,4-tetrahydroisoquinolin-7-yl}pyridin-2-yl)carbonyl]azetidin-3-ol] yielded an IC50 of 27 nM. `CC1Cc2ccc(-c3ccn(Cc4ccncc4)n3)cc2CN1c1cc(N2CCN(C)CC2)nc(N)n1` (single isomer, unassigned) [Example 157, 4-(4-Methylpiperazin-1-yl)-6-[3-methyl-7-[1-(pyridin-4-ylmethyl)-1H-pyrazol-3-yl]-3,4-dihydroisoquinolin-2(1H)-yl]pyrimidin-2-amine] was tested, and the IC50 was 8.7 nM. Work on `CC1Cc2ccc(-c3cnn(CC(=O)N(C)C)c3)cc2CN1c1cc(N2CCN(C)CC2)nc(N)n1` (centres unmarked) [Example 80, 2-(4-{2-[2-Amino-6-(4-methylpiperazin-1-yl)pyrimidin-4-yl]-3-methyl-1,2,3,4-tetrahydroisoquinolin-7-yl}-1H-pyrazol-1-yl)-N,N-dimethylacetamide] yielded an IC50 of 106 nM. For `CC1Cc2ccc(C3=CCN(C(=O)NC4CCCC4)CC3)cc2CN1c1cc(N2CCN(C)CC2)nc(N)n1` (centres unmarked) [Example 136, 4-{2-[2-Amino-6-(4-methylpiperazin-1-yl)pyrimidin-4-yl]-3-methyl-1,2,3,4-tetrahydroisoquinolin-7-yl}-N-cyclopentyl-3,6-dihydropyridine-1(2H)-carboxamide], the IC50 was 68 nM. `CC1Cc2ccc(-c3ccc(C(=O)N[C@H](C)CO)nc3)cc2CN1c1cc(N2CCN(C)CC2)nc(N)n1` (single isomer, unassigned) [Example 51B] gave an IC50 of 63 nM. With `CC1Cc2ccc(-c3cnn(C)c3)cc2CN1c1cc(N2CCCNCC2)nc(N)n1` (centres unmarked) [Example 122, 4-(1,4-Diazepan-1-yl)-6-[3-methyl-7-(1-methyl-1H-pyrazol-4-yl)-3,4-dihydroisoquinolin-2(1H)-yl]pyrimidin-2-amine] the IC50 was 51 nM. `CC1Cc2ccc(-c3ccn(C)n3)cc2CN1c1cc(N2CCN(C)CC2)nc(N)n1` (single isomer, unassigned) [Example 85B, 4-[3-Methyl-7-(1-methyl-1H-pyrazol-3-yl)-3,4-dihydroisoquinolin-2(1H)-yl]-6-(4-methylpiperazin-1-yl)pyrimidin-2-amine] gave an IC50 of 104 nM. With `CC(C)NC(=O)c1cc(-c2ccc3c(c2)CN(c2cc(N4CCN(C)CC4)nc(N)n2)C(C)C3)cn1C` (single isomer, unassigned) [Example 90A, 4-{2-[2-Amino-6-(4-methylpiperazin-1-yl)pyrimidin-4-yl]-3-methyl-1,2,3,4-tetrahydroisoquinolin-7-yl}-N-isopropyl-1-methyl-1H-pyrrole-2-carboxamide] the IC50 was 66 nM. Work on `CC1Cc2ccc(C3CCN(C(=O)N(C)C)CC3)cc2CN1c1cc(N2CCN(C)CC2)nc(N)n1` (centres unmarked) [Example 144, 4-{2-[2-Amino-6-(4-methylpiperazin-1-yl)pyrimidin-4-yl]-3-methyl-1,2,3,4-tetrahydroisoquinolin-7-yl}-N,N-dimethylpiperidine-1-carboxamide] yielded an IC50 of 24 nM. `COC(=O)N1CCC(c2ccc3c(c2)CN(c2cc(N4CCN(C)CC4)nc(N)n2)C(C)C3)CC1` (centres unmarked) [Example 147, Methyl 4-{2-[2-amino-6-(4-methylpiperazin-1-yl)pyrimidin-4-yl]-3-methyl-1,2,3,4-tetrahydroisoquinolin-7-yl}piperidine-1-carboxylate] gave an IC50 of 12.1 nM. `CC1Cc2ccc(-c3cnn(CC4CCCO4)c3)cc2CN1c1cc(N2CCN(C)CC2)nc(N)n1` (single isomer, unassigned) [Example 99A, 4-(4-Methylpiperazin-1-yl)-6-[3-methyl-7-[1-(tetrahydrofuran-2-ylmethyl)-1H-pyrazol-4-yl]-3,4-dihydroisoquinolin-2(1H)-yl]pyrimidin-2-amine] showed an IC50 of 83 nM. In the case of `CN1CCN(c2cc(N3CCc4ccc(C(=O)N5CCCC5)cc4C3)nc(N)n2)CC1` [Example 29, 4-(4-Methylpiperazin-1-yl)-6-[7-(pyrrolidin-1-ylcarbonyl)-3,4-dihydroisoquinolin-2 (1H)-yl]pyrimidin-2-amine], the IC50 is reported as 229 nM. In the case of `CC1Cc2ccc(-c3cnn(C)c3)cc2CN1c1cc(N2CC[C@@H](N)C2)nc(N)n1` (stereo partly drawn) [Example 118, 4-[(3R)-3-Aminopyrrolidin-1-yl]-6-[3-methyl-7-(1-methyl-1H-pyrazol-4-yl)-3,4-dihydroisoquinolin-2(1H)-yl]pyrimidin-2-amine], the IC50 is reported as 255 nM.
